Reference: US20090203718A1, “CANCER TREATMENT METHOD” (SmithKline Beecham (Cork) Ltd., priority 2006, published 2009)

Experiments:
Format in all cases: cell-based, human
A549 cells [1] = assay: Cell proliferation, BrdU ELISA and Celltiter Glo (FIG. 1)
A549 cells [2] = assay: Apoptosis, Roche Cell Death ELISA and Caspase-3/7 (FIG. 1); details: for apoptosis: agent alone, 24 h
Description: (§1) A549 cells were grown in RPMI-1640 supplemented with 25 mM HEPES, 10 mM glutamine and 10% fetal bovine serum and maintained at 37° C. and 5% CO2 in a humid incubator. Colo205 and MDA-MB-468 cells were grown in DMEM supplemented with 25 mM HEPES, 10 mM glutamine, 4.5 g/L d-glucose, and 10% fetal bovine serum. Assays were performed in 96 well microtiter plates with optimum seeding densities for each cell line.
(§2) Apoptosis was measured using the Roche Cell Death ELISA^Plus kit (catalog 1 774 425) which detects fragmented nucleosomal DNA that is generated during apoptosis.
(§3) Cell death was measured using the Roche Cell Death ELISA^Plus kit and Promega Apo-ONE™ Homogeneous Caspase-3/7 Assay. Total cell number was measured using the Celltiter Glo® Luminescent Cell Viability Assay and cell proliferation was measured with the Roche BrdU Cell Proliferation ELISA assay.

Colo205 cells [3] = assay: Cell proliferation, BrdU ELISA and Celltiter Glo (FIG. 2)
Description: (§4) Colo205 and MDA-MB-468 cells were grown in DMEM supplemented with 25 mM HEPES, 10 mM glutamine, 4.5 g/L d-glucose, and 10% fetal bovine serum. Assays were performed in 96 well microtiter plates with optimum seeding densities for each cell line.
(§5) Cell proliferation was measured using the Celltiter Glo® Luminescent Cell Viability Assay available from Promega Corporation and the Roche BrdU Cell Proliferation ELISA assay.
as §3

Colo205 cells [4] = assay: Apoptosis, Roche Cell Death ELISA and Caspase-3/7 (FIG. 2); details: for apoptosis: agent alone, 24 h
Description: as §1, §2, §3

MDA-MB-468 cells [5] = assay: Cell proliferation, BrdU ELISA and Celltiter Glo (FIG. 3)
Description: as §4, §5, §3

MDA-MB-468 cells [6] = assay: Apoptosis, Roche Cell Death ELISA and Caspase-3/7 (FIG. 3); details: for apoptosis: agent alone, 24 h
Description: as §1, §2, §3

[7] = 1:1 molar ratio with GW572016, 24 h

Nc1ncnc2c1c(-c1cccc(OCc3ccccc3)c1)cn2[C@H]1C[C@@H](CN2CCCC2)C1 [GSK621659A]
cell proliferation, combination versus either agent alone (A549 cells [1]; [7]): more effective than either agent alone | cell proliferation (A549 cells [1]; agent alone, 24 h): decreased cell proliferation | apoptosis, combination versus either agent alone (A549 cells [2]; [7]): more effective than either agent alone | apoptosis (A549 cells [2]): increased apoptosis | cell proliferation, combination versus either agent alone (Colo205 cells [3]; [7]): more effective than either agent alone | cell proliferation (Colo205 cells [3]; agent alone, 24 h): decreased cell proliferation | apoptosis, combination versus either agent alone (Colo205 cells [4]; [7]): more effective than either agent alone | apoptosis (Colo205 cells [4]): increased apoptosis | cell proliferation, combination versus either agent alone (MDA-MB-468 cells [5]; [7]): more effective than either agent alone | cell proliferation (MDA-MB-468 cells [5]; agent alone, 24 h): decreased cell proliferation | apoptosis, combination versus either agent alone (MDA-MB-468 cells [6]; [7]): more effective than either agent alone | apoptosis (MDA-MB-468 cells [6]): increased apoptosis

CS(=O)(=O)CCNCc1ccc(-c2ccc3ncnc(Nc4ccc(OCc5cccc(F)c5)c(Cl)c4)c3c2)o1 [GW572016, N-{3-Chloro-4-[(3-fluorobenzyl)oxy]phenyl}-6-[5-({[2-(methanesulphonyl)ethyl]amino}methyl)-2-furyl]-4-quinazolinamine ditosylate monohydrate]
apoptosis (A549 cells [2]): increased apoptosis | apoptosis (Colo205 cells [4]): increased apoptosis | apoptosis (MDA-MB-468 cells [6]): increased apoptosis
